Assay results published in the NIST ThermoML archive (doi:10.1007/s10765-007-0169-z).

Experiments:
[1] = xn = mol fraction of the nth substance listed; settings: Drop volume
[2] = for surface tension liquid-gas: Drop volume; for mass density: 101.33 kPa, Liquid, Pycnometric method

CC(C)(C)Cl [2-chloro-2-methylpropane] + C1CCOC1
[1]
Settings	surface tension liquid-gas [mN/m]
298.15 K, x2 = 0.0664	19.32
298.15 K, x2 = 0.1332	19.74
298.15 K, x2 = 0.2532	20.51
298.15 K, x2 = 0.3652	21.26
298.15 K, x2 = 0.4851	22.11
298.15 K, x2 = 0.5768	22.81
298.15 K, x2 = 0.6804	23.66
298.15 K, x2 = 0.7747	24.51
298.15 K, x2 = 0.8446	25.2
298.15 K, x2 = 0.9372	26.23
298.15 K, x2 = 0.9656	26.58
313.15 K, x2 = 0.0427	16.98
313.15 K, x2 = 0.1236	17.22
313.15 K, x2 = 0.1853	17.54
313.15 K, x2 = 0.2856	18.22
313.15 K, x2 = 0.3852	18.94
313.15 K, x2 = 0.5033	19.9
313.15 K, x2 = 0.6055	20.75
313.15 K, x2 = 0.6963	21.55
313.15 K, x2 = 0.794	22.48
313.15 K, x2 = 0.89	23.53
313.15 K, x2 = 0.9446	24.25

CC(C)(C)Cl [2-chloro-2-methylpropane] + C1CCOCC1
[1]
Settings	surface tension liquid-gas [mN/m]
298.15 K, x2 = 0.0332	19.18
298.15 K, x2 = 0.0955	19.68
298.15 K, x2 = 0.2242	20.68
298.15 K, x2 = 0.3219	21.37
298.15 K, x2 = 0.4336	22.17
298.15 K, x2 = 0.5374	22.97
298.15 K, x2 = 0.6269	23.69
298.15 K, x2 = 0.7173	24.48
298.15 K, x2 = 0.8149	25.41
298.15 K, x2 = 0.9089	26.36
298.15 K, x2 = 0.9418	26.71
313.15 K, x2 = 0.0734	17.35
313.15 K, x2 = 0.1038	17.5
313.15 K, x2 = 0.2093	18.14
313.15 K, x2 = 0.3169	18.9
313.15 K, x2 = 0.4363	19.8
313.15 K, x2 = 0.5116	20.41
313.15 K, x2 = 0.612	21.24
313.15 K, x2 = 0.7058	22.05
313.15 K, x2 = 0.8154	23.08
313.15 K, x2 = 0.9006	23.98
313.15 K, x2 = 0.9529	24.66

CCC(C)Cl (configuration not stated) [2-chlorobutane]
[2]
Settings	mass density [kg/m3]	surface tension liquid-gas [mN/m]
298.15 K	867.37	21.93
313.15 K	–	19.33

CCC(C)Cl (configuration not stated) [2-chlorobutane] + C1CCOC1
[1]
Settings	surface tension liquid-gas [mN/m]
298.15 K, x2 = 0.0427	21.96
298.15 K, x2 = 0.1259	22.24
298.15 K, x2 = 0.2478	22.71
298.15 K, x2 = 0.3589	23.19
298.15 K, x2 = 0.4628	23.68
298.15 K, x2 = 0.5654	24.19
298.15 K, x2 = 0.6678	24.74
298.15 K, x2 = 0.7513	25.22
298.15 K, x2 = 0.84	25.77
298.15 K, x2 = 0.9208	26.35
298.15 K, x2 = 0.9701	26.76
313.15 K, x2 = 0.0581	19.7
313.15 K, x2 = 0.124	20.12
313.15 K, x2 = 0.2442	20.84
313.15 K, x2 = 0.3595	21.47
313.15 K, x2 = 0.4761	22.05
313.15 K, x2 = 0.573	22.53
313.15 K, x2 = 0.6654	23
313.15 K, x2 = 0.7524	23.45
313.15 K, x2 = 0.836	23.94
313.15 K, x2 = 0.9209	24.49
313.15 K, x2 = 0.9663	24.81

CCC(C)Cl (configuration not stated) [2-chlorobutane] + C1CCOCC1
[1]
Settings	surface tension liquid-gas [mN/m]
298.15 K, x2 = 0.04	22.05
298.15 K, x2 = 0.1057	22.38
298.15 K, x2 = 0.2133	22.88
298.15 K, x2 = 0.3195	23.39
298.15 K, x2 = 0.4166	23.88
298.15 K, x2 = 0.5188	24.44
298.15 K, x2 = 0.6151	24.99
298.15 K, x2 = 0.7111	25.56
298.15 K, x2 = 0.8098	26.15
298.15 K, x2 = 0.9438	26.95
298.15 K, x2 = 0.9845	27.2
313.15 K, x2 = 0.0355	19.56
313.15 K, x2 = 0.1006	20.01
313.15 K, x2 = 0.2177	20.83
313.15 K, x2 = 0.3192	21.5
313.15 K, x2 = 0.4243	22.14
313.15 K, x2 = 0.5166	22.66
313.15 K, x2 = 0.5931	23.07
313.15 K, x2 = 0.7193	23.76
313.15 K, x2 = 0.8156	24.31
313.15 K, x2 = 0.9057	24.85
313.15 K, x2 = 0.991	25.34

C1CCOC1 [tetrahydrofuran]
[2]
Settings	mass density [kg/m3]	surface tension liquid-gas [mN/m]
298.15 K	881.95	27.04
313.15 K	–	25.05

C1CCOCC1 [tetrahydropyran]
[2]
Settings	mass density [kg/m3]	surface tension liquid-gas [mN/m]
298.15 K	878.81	27.29
313.15 K	–	25.39
